Measured values: patent publication US20070249590A1, “Substituted indolo[2,3-a]pyrrolo[3,4-c]carbazole compounds useful in treating kinase disorders” (priority 2005, published 2007)

What follows are compounds tested against T1, JAK3 (JH1 and JH2 domain) (Homo sapiens, UniProt P52333) (assay: JAK3 Kinase Assay (ELISA of peptide substrate phosphorylation)). Conditions: purified JAK3 enzyme, 10 μM ATP, biotinylated peptide substrate, 1 hour at room temperature.
T1 sequence (P52333 521-1111 limits assumed): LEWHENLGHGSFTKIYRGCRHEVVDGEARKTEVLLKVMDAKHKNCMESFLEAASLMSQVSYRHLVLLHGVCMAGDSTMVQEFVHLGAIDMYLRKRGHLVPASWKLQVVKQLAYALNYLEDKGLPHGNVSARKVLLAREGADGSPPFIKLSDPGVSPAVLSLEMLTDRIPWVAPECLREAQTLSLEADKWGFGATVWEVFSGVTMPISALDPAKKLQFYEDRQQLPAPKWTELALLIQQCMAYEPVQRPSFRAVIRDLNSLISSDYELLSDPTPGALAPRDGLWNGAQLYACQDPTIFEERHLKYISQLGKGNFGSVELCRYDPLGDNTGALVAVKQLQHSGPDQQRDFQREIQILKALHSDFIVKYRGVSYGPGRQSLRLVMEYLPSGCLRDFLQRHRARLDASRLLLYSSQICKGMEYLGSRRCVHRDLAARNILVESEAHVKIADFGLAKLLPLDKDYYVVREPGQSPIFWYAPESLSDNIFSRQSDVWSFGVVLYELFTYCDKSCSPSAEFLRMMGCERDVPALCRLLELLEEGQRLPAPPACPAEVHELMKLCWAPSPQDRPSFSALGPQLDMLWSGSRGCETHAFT
Type: biochemical
Description: JAK3 enzyme activity was assayed relative to enzyme phosphorylation using the method described herein.
Sf21 cells derived from the ovarian tissue of the fall armyworm Spodotera frugiperda were obtained from Pharmingen (San Diego, Calif.) and maintained at a temperature of about 26-28° C. in 1 l Bellco spinner flasks at 60-90 rpm. Cell viability was maintained at 95-100%, as determined by a tryptan blue dye exclusion test.
Sf21 cells were infected with a baculovirus expression vector for JAK3 (JH1 and JH2 domain). After 48 hours of infection, cells were harvested and lysed in Tris-saline (pH 7.6) containing 2% NP-40 and a combination of protease inhibitors (Aprotinin, Pepstatin A, Pefabloc, E-64, Leupeptin, and Benzamidine) on ice for 45 minutes.
The JAK3 enzyme was purified from the lysate using glutathione sepharose beads and the enzyme activity was assessed in Costar flat bottom EIA/RIA 96 well plates. The plates were coated with Neutravidin (110 μL) (Pierce Neutravidin Biotin-binding Protein 31000; 1 mg/mL 1:100) diluted in PBS for 1 hour at room temperature. The plates were washed with PBS-0.1% Tween (3 times) to remove unbound Neutravidin, then 1% BSA (150 NIL) in PBS was added to each well to block non-specific binding. The plates was incubated for 1 hour at room temperature and stored at −80° C. until use.
JAK3 enzyme solution (48 μL) in 1.25×TK buffer (62.5 mM HEPES pH 7.5, 12.5 mM MgCl2) containing DTT (42 mM) (Sigma, St. Louis, Mo.) was added to each well of a polypropylene 96 well plate.
A test compound (5 μL) diluted in DMSO (48 μL) and biotinylated peptide enzyme substrate (5 μg diluted in TK buffer containing 10 μM ATP) were added to each well using the double dispense feature of a multichannel electronic biohit. Control wells received DMSO vehicle (5 μL). The contents of the wells were mixed for approximately 8 seconds using a multitube vortexer and the reaction mixture was incubated for 1 hour at room temperature.
After incubation, an aliquot of reaction mixture (90 μL) was transferred into a washed Neutravidin coated plate. The plate was incubated for 15 minutes at room temperature and washed 3 times with PBS-T. PY99 anti-phosphotyrosine antibody (100 μL/well) (Santa Cruz #sc-7020HRP diluted 1:6000 in 1× antibody buffer) was added into each well and the plate was incubated for 40 minutes at room temperature. The antibody buffer contained 10% BSA, 100 mM Tris (pH 7.5), 1M NaCl and 1% Tween 20. The plate washed 3 times with PBS-T, then TMB (100 pLXSigma, St. Louis, Mo.) was added to the each well. The plate was incubated for another 40 mins at room temperature in the dark. The reaction was stopped by the addition of 1M H2SO4 (50 μL/well) and the optical density was read at 450/650 nm.
Test compounds were assayed in triplicate at 16 concentrations at half-log dilutions starting at 200 μM. A maximum and minimum signal for the assay was determined on each plate. The percent inhibition of a test compound was calculated according to the formula [formula]
For a series of test concentrations, the IC50 was derived by graphing percent inhibition against the log of the concentrations tested for a given compound. For those compounds without an IC50, the percent inhibition results are shown at a test concentration of 1 μM.

| Compound | IC50 |
| --- | --- |
| O=C1NCc2c1c1c3cc(Cn4ccnc4)ccc3n3c1c1c2c2ccccc2n1CC(O)C(O)C3 (centres unmarked) [Cpd 202, 3-(imidazol-1-ylmethyl)-12,13-(2,3-dihydroxy-butan-1,4-yl)-6,7,12,13-tetrahydro-5-oxo-5H-indolo[2,3-a]pyrrolo[3,4-c]carbazole] | 103 nM |
| CN(C)CCCN1CCN(C(=O)C2(O)Cn3c4ccccc4c4c5c(c6c7ccccc7n(c6c43)CC2O)C(=O)NC5=O)CC1 (centres unmarked) [Cpd 126, 12,13-(2-{[4-(3-dimethylamino-prop-1-yl)piperazin-1-yl]carbonyl}-2,3-dihydroxy-butan-1,4-yl)-12,13-dihydro-5,7-dioxo-6H-indolo[2,3-a]pyrrolo[3,4-c]carbazole] | 55 nM |
| Cc1ccc(CNC(=O)OCC2(O)Cn3c4ccccc4c4c5c(c6c7ccccc7n(c6c43)C2)C(=O)NC5)o1 (centres unmarked) [Cpd 141, 12,13-(2-hydroxy-2-{[(5-methyl-furan-2-yl)methyl]carbamoyloxymethyl}-propan-1,3-yl)-6,7,12,13h-tetrahydro-5-oxo-5H-indolo[2,3-a]pyrrolo[3,4-c]carbazole] | 117 nM |
| O=C(NCCc1ccccn1)OCC1Cn2c3ccccc3c3c4c(c5c6ccccc6n(c5c32)C1)C(=O)NC4 (centres unmarked) [Cpd 160, 12,13-{2-[(2-pyridin-2-yl-ethyl)carbamoyloxymethyl]-propan-1,3-yl}-6,7,12,13-tetrahydro-5-oxo-5H-indolo[2,3-a]pyrrolo[3,4-c]carbazole] | > 200 nM |
| O=C1NCc2c1c1c3ccccc3n3c1c1c2c2ccccc2n1CC(COC(=O)N1CCC(N2CCCC2)CC1)C3 (centres unmarked) [Cpd 162, 12,13-{2-[(4-pyrrolidin-1-yl-piperidin-1-yl)carbonyloxymethyl]-propan-1,3-yl}-6,7,12,13-tetrahydro-5-oxo-5H-indolo[2,3-a]pyrrolo[3,4-c]carbazole] | 655 nM |
| O=C(NCCCN1CCCC1=O)OCC1(O)Cn2c3ccccc3c3c4c(c5c6ccccc6n(c5c32)C1)C(=O)NC4 (centres unmarked) [Cpd 140, 12,13-(2-hydroxy-2-{[3-(2-oxo-pyrrolidin-1-yl)-prop-1-yl]carbamoyloxymethyl}-propan-1,3-yl)-6,7,12,13-tetrahydro-5-oxo-5H-indolo[2,3-a]pyrrolo[3,4-c]carbazole] | 72 nM |
| O=C1NC(=O)c2c1c1c3ccccc3n3c1c1c2c2ccccc2n1CC(OC(=O)N1CCN(CCO)CC1)CC3 (centres unmarked) [Cpd 66, 12,13-(2-{[4-(2-hydroxy-ethyl)piperazin-1-yl]carbonyloxy}-butan-1,4-yl)-12,13-dihydro-5,7-dioxo-6H-indolo[2,3-a]pyrrolo[3,4-c]carbazole] | 40 nM |
| CN(C)CC(=O)OC1Cn2c3ccccc3c3c4c(c5c6ccccc6n(c5c32)CC1OC(=O)CN(C)C)C(=O)NC4 (centres unmarked) [Cpd 15, 12,13-{2,3-bis-[(dimethylaminomethyl)carbonyloxy]-butan-1,4-yl}-6,7,12,13-tetrahydro-5-oxo-5H-indolo[2,3-a]pyrrolo[3,4-c]carbazole] | 653 nM |
| Cc1ncsc1/C=C/c1ccc2c(c1)c1c3c(c4c5ccccc5n5c4c1n2CC(CO)C5)CNC3=O (centres unmarked) [Cpd 217, 3-[(2E)-2-(4-methyl-thiazol-5-yl)ethenyl]-12,13-(2-hydroxymethyl-propan-1,3-yl)-6,7,12,13-tetrahydro-5-oxo-5H-indolo[2,3-a]pyrrolo[3,4-c]carbazole] | 592 nM |
| CN1CCN(CCCNC(=O)OC2CCn3c4ccccc4c4c5c(c6c7ccccc7n(c6c43)C2)C(=O)NC5=O)CC1 (centres unmarked) [Cpd 43, 12,13-(2-{[3-(4-methyl-piperazin-1-yl)prop-1-yl]carbamoyloxy}-butan-1,4-yl)-12,13-dihydro-5,7-dioxo-6H-indolo[2,3-a]pyrrolo[3,4-c]carbazole] | 112 nM |
| O=C1NC(=O)c2c1c1c3ccccc3n3c1c1c2c2ccccc2n1CC(OC(=O)N1CCN(CCc2ccccc2)CC1)C(O)C3 (centres unmarked) [Cpd 110, 12,13-(2-{[4-(2-phenyl-ethyl)piperazin-1-yl]carbamoyloxy}-3-hydroxy-butan-1,4-yl)-12,13-dihydro-5,7-dioxo-6H-indolo[2,3-a]pyrrolo[3,4-c]carbazole] | 916 nM |
| O=C1NC(=O)c2c1c1c3ccccc3n3c1c1c2c2ccccc2n1CC(O)CCC3 (centres unmarked) [Cpd 8] | 8 nM |

The remaining lines, values ahead:

| IC50 | Compound |
| --- | --- |
| 14 nM | CN(C)[C@@H]1CCN(C(=O)OC2CCn3c4ccccc4c4c5c(c6c7ccccc7n(c6c43)C2)C(=O)NC5=O)C1 (stereo partly drawn) [Cpd 74, 12,13-(2-{[(3R)-3-dimethylamino-pyrrolidin-1-yl]carbonyloxy}-butan-1,4-yl)-12,13-dihydro-5,7-dioxo-6H-indolo[2,3-a]pyrrolo[3,4-c]carbazole] |
| > 200 nM | CN(C)CCCN(CCCN(C)C)C(=O)OC1Cn2c3ccccc3c3c4c(c5c6ccccc6n(c5c32)CC1O)C(=O)NC4=O (centres unmarked) [Cpd 109, 12,13-(2-{[N,N-bis-(3-dimethylamino-prop-1-yl)]carbamoyloxy}-3-hydroxy-butan-1,4-yl)-12,13-dihydro-5,7-dioxo-6H-indolo[2,3-a]pyrrolo[3,4-c]carbazole] |
| 115 nM | O=C1NC(=O)c2c1c1c3ccccc3n3c1c1c2c2ccccc2n1CC(OC(=O)N1CCN(CCN2CCOCC2)CC1)CC3 (centres unmarked) [Cpd 56, 12,13-(2-{[4-(2-morpholin-4-yl-ethyl)piperazin-1-yl]carbonyloxy}-butan-1,4-yl)-12,13-dihydro-5,7-dioxo-6H-indolo[2,3-a]pyrrolo[3,4-c]carbazole] |
| 886 nM | O=C1NCc2c1c1c3ccccc3n3c1c1c2c2ccccc2n1CC(O)(COC(=O)N1CCN(c2ccncc2)CC1)C3 (centres unmarked) [Cpd 144, 12,13-{2-hydroxy-2-[(4-pyridin-4-yl-piperazin-1-yl)carbonyloxymethyl]-propan-1,3-yl}-6,7,12,13-tetrahydro-5-oxo-5H-indolo[2,3-a]pyrrolo[3,4-c]carbazole] |
| 81 nM | O=C1NC(=O)c2c1c1c3ccccc3n3c1c1c2c2ccccc2n1CC(OC(=O)N1CCN(c2ccccc2)CC1)C(O)C3 (centres unmarked) [Cpd 102, 12,13-{2-[(4-phenyl-piperazin-1-yl)carbonyloxy]-3-hydroxy-butan-1,4-yl}-12,13-dihydro-5,7-dioxo-6H-indolo[2,3-a]pyrrolo[3,4-c]carbazole] |
| 64 nM | CN1CCN(C(=O)OC2Cn3c4ccccc4c4c5c(c6c7ccccc7n(c6c43)CC2O)C(=O)NC5=O)CC1 (centres unmarked) [Cpd 76, 12,13-{2-[(4-methyl-piperazin-1-yl)carbonyloxy]-3-hydroxy-butan-1,4-yl}-12,13-dihydro-5,7-dioxo-6H-indolo[2,3-a]pyrrolo[3,4-c]carbazole] |
| 129 nM | O=C1NC(=O)c2c1c1c3ccccc3n3c1c1c2c2ccccc2n1CC(OC(=O)N1CCN(c2ccccn2)CC1)CC3 (centres unmarked) [Cpd 63, 12,13-{2-[(4-pyridin-2-yl-piperazin-1-yl)carbonyloxy]-butan-1,4-yl}-12,13-dihydro-5,7-dioxo-6H-indolo[2,3-a]pyrrolo[3,4-c]carbazole] |
| 3 nM | O=C1NCc2c1c1c3cc(/C=C/Cn4ccnc4)ccc3n3c1c1c2c2cc(CO)ccc2n1CC(CO)C3 (centres unmarked) [Cpd 223, 3-[(1E)-3-1H-imidazol-1-yl-prop-1-en-1-yl]-9-hydroxymethyl-12,13-(2-hydroxymethyl-propan-1,3-yl)-6,7,12,13-tetrahydro-5-oxo-5H-indolo[2,3-a]pyrrolo[3,4-c]carbazole] |
